# Reference: publication PMC9545147, “Impact of Sulfur Fumigation on Ginger: Chemical and Biological Evidence” (Journal of Agricultural and Food Chemistry, 2022)
# How the values were obtained:
# [1] = MTT cell viability assay, Hep-G2; format: cell-based; settings: human, Hep-G2 hepatocellular carcinoma cells, Hep-G2, 100 μM
# Experimental: (§1) HCT-116 colon cancer cells (Procell, Wuhan, China) were cultured in McCoy’s 5A medium (Gibco; Thermo Fisher Scientific Inc., MA, USA), Hep-G2 hepatocellular carcinoma cells (Procell, Wuhan, China) in Eagle’s minimum essential medium (EMEM, Gibco; Thermo Fisher Scientific Inc., MA, USA), and HCC-1806 breast cancer cells (Manassas, VA, USA) in RPMI-1640 medium (Gibco; Thermo Fisher Scientific Inc., MA, USA). All the mediums were supplemented with 10% fetal bovine serum and 1% penicillin–streptomycin (Thermo Fisher Scientific Inc., MA, USA) and cultured at 37 °C in a humidified incubator with 5% CO2.
# (§2) Cell viability was determined by a 3-(4,5-dimethylthiazol-2-yl)-2,5-diphenyltetrazolium bromide (MTT) colorimetric assay. Each cell strain (6000 cells/well) was plated in 96-well microtiter plates and allowed to attach for 24 h at 37 °C and 5% CO2. Compound I or 6-shogaol (in dimethyl sulfoxide, DMSO) was added to the cell culture medium to desired final concentrations of 10, 40, and 100 μM. Final DMSO concentrations for control and treatments were 0.1%. There were six replicates of each condition. After the cells were cultured for 24 h, the medium was removed, and the cells were treated with 5 mg/mL MTT in fresh media. […] Absorbance values were derived from the plate reading at 490 nm on microplate readers (BioTek, Agilent).
# [2] = MTT cell viability assay, HCC-1806; format: cell-based; settings: human, HCC-1806 breast cancer cells, HCC-1806, 100 μM
# Experimental: as §1, §2
# [3] = system: HCT-116 colon cancer cells; test: MTT cell viability assay, HCT-116; format: cell-based, human; settings: HCT-116, 10 μM, 24 h
# Experimental: as §1
# (§3) Cell viability was determined by a 3-(4,5-dimethylthiazol-2-yl)-2,5-diphenyltetrazolium bromide (MTT) colorimetric assay. Each cell strain (6000 cells/well) was plated in 96-well microtiter plates and allowed to attach for 24 h at 37 °C and 5% CO2. Compound I or 6-shogaol (in dimethyl sulfoxide, DMSO) was added to the cell culture medium to desired final concentrations of 10, 40, and 100 μM. Final DMSO concentrations for control and treatments were 0.1%. There were six replicates of each condition. After the cells were cultured for 24 h, the medium was removed, and the cells were treated with 5 mg/mL MTT in fresh media. After incubation for 4 h at 37 °C, the medium containing MTT was removed, 100 μL of DMSO was added to the wells, and the plates were shaken gently for 30 min at room temperature. Absorbance values were derived from the plate reading at 490 nm on microplate readers (BioTek, Agilent).
# [4] = MTT cell viability assay, HCT-116; format: cell-based, human; settings: human, HCT-116 colon cancer cells; for viability at 24 h, 100 µM: HCT-116, 100 μM
# Experimental: as §1, §3
# [5] = Pharmacokinetics in rats after single oral (intragastric) administration; format: in vivo; settings: male, Sprague-Dawley, rat, 10 mg/kg, plasma, mean ± SD (n = 6); for CL/F: read-out: Cl/F_obs (apparent total body clearance) (converted); for MRT: read-out: MRT (mean residence time); for half-life: read-out: T1/2 (terminal half-life) (converted); for Vd/F: read-out: Vz/F_obs (apparent volume of distribution)
# Experimental: A multiple reaction monitoring (MRM) mass acquisition method using a triple quadrupole (QQQ) mass spectrometer was used to determine compound I and 6-shogaol in rat plasma. Chromatographic separation was performed on an Agilent 1290 UPLC equipped with a binary pump with degasser (G4220A), a thermostatic column compartment (G1316C), and an autosampler (G4226A). […] The mobile phase used for the UPLC consisted of 0.1% formic acid in water (v/v) (A) and 0.1% formic acid in acetonitrile (v/v) (B). The elution gradient procedure started at 15% B, then 0–5 min, 15–75% B; 5–6 min, 75–100% B; 6–9 min, 100% B; 9–12 min, 15% B.
# MS data were acquired with an Agilent 6460 QQQ mass spectrometer (G6460) equipped with a JetStream electrospray ion (ESI) source. The MRM parameters were as follows: for 6-gingesulfonic acid, negative mode; fragmentor at 120 V; ion pair m/z 357.1 → 80.9 (15 V), 357.1 → 275.1 (15 V). For 6-shogaol, positive mode; fragmentor at 80 V; ion pair m/z 277.2 → 137.0 (11 V), 277.2 → 259.1 (7 V).
# The pharmacokinetic parameters were calculated using the PKSolver 2.0 add-in with a non-compartment model.[11],[12] The time to peak drug concentration (Tmax) means the time when plasma concentrations reached a maximum value (Cmax). The area under the concentration versus time curve from zero to the last sampling time (AUC0–t) and to infinity (AUC0–∞), apparent volume of distribution (Vz/F_obs), terminal half-life (T1/2), mean residence time (MRT), and apparent total body clearance (Cl/F_obs), were calculated under the PKSolver add-in. All the results were presented as the mean ± standard deviation (SD) of six independent experiments.
# [6] = Stability evaluation of samples in rat plasma (UPLC–QQQ–MS/MS method validation); format: in vitro ADME; settings: n=3; for Stability (Mean±SD), Postpreparative: rat plasma samples in autosampler for 8 h; for Stability (Mean±SD), Short Term / Stability (Mean±SD), Freeze and Thaw / Stability (Mean±SD), Long Term: rat plasma; for Stability (Mean±SD), Short Term: room temperature for 4 h; for Stability (Mean±SD), Freeze and Thaw: −20 °C for 24 h and thawed at room temperature, repeated three times; for Stability (Mean±SD), Long Term: −20 °C for 30 days
# Experimental: The established UPLC–QQQ–MS/MS methods were validated according to the guidelines of the US Food and Drug Administration.[10] Linearity, limit of detection (LOD), lower limit of quantification (LLOQ), interday and intraday accuracy and precision, extraction recovery, and stability were measured. The calibration curve was replicated three times on the same day (intraday) and over 3 days (interday) to evaluate accuracy and precision. The correlation coefficient (r^2) of all calibration curves was at least 0.995, and the bias and coefficient of variation were kept within ±15%. Matrix effect and recovery evaluation: the matrix effect was given as the ratio of mean peak area for the post-extraction spiked samples (set 2, in plasma) to that of the standard solution samples (set 1, in MeOH). Recovery was quantified as the ratio of mean peak area of the pre-extraction spiked samples (set 3, standard with homogenate plasma) to that of the post-extraction spiked samples (set 2, in plasma). Stability: (1) freeze and thaw: samples were stored at −20 °C for 24 h and thawed at room temperature and repeated three times; (2) short term: samples were maintained at room temperature for 4 h; (3) long term: samples were kept at −20 °C for 30 days; (4) postpreparative: samples were maintained in an autosampler for 8 h. The stability of all the samples was limited to within ±15%, except for the LLOQ within ±20%.
# [7] = Metabolite profiling in rat plasma, urine and feces by UPLC–QTOF–MS/MS; settings: rats; for biological samples in which metabolite was detected, 6-Shogaol treated: 10 mg/kg oral 6-shogaol, feces/urine/plasma
# Experimental: A total of 12 adult male Sprague–Dawley rats (220–240 g) were purchased from the Chinese University of Hong Kong. The animals were kept in standard living conditions (room temperature 22 ± 1 °C, 12 h light/dark normal cycle, and constant humidity) at the animal laboratory of the School of Chinese Medicine, Hong Kong Baptist University with free access to food and water. All experimental protocols were approved by the Environmental Health and Safety Committee of Hong Kong Baptist University, Hong Kong (03/2017), and the procedures were in accordance with the guidelines of the Animal Care Ethics Committee of Hong Kong Baptist University and the Department of Health, Hong Kong Special Administrative Region. Before the experiment, the rats were kept for one week to acclimate to the new environment. The rats were randomly divided into two groups (n = 6) and fasted with water freely available. On the day of the experiment, by intragastric administration, one group received compound I and the other group received 6-shogaol. Both compounds were dissolved in 2% Tween 80 with an administration volume of less than 0.5 mL at a dose of 10 mg/kg. Then, rats were housed singly during the blood collection period (a total of 72 h). For each sample, 300–500 μL blood was collected from the eye canthus of each rat into tubes containing 1.5 mL EDTA. Samples were drawn at 0.0, 0.08, 0.25, 0.50, 0.75, 1.0, 2.0, 4.0, 6.0, 12, 24, 36, 48, 60, and 72 h. The blood samples were centrifuged at 4000 rpm for 15 min at 4 °C to obtain plasma. Urine and feces were collected every 1–2 h throughout the experiments. The blood, urine, and feces were collected before the intragastric administration as a blank sample. The rats were sacrificed by cervical spondylolisthesis after the experiment.
# For metabolite identification and relative quantification, homogeneous biospecimen samples were combined during periods from 0 h to the time when plasmatic concentrations reached a maximum value (Tmax) after intragastric administration. 50 μL of each plasma or urine sample was added to 1.2 mL of MeOH to precipitate proteins. […]
compound,measurement,setting,value
CCCCCC(CC(=O)CCc1ccc(O)c(OC)c1)S(=O)(=O)O (centres unmarked) [6-gingesulfonic acid],"viability at 24 h, 100 µM",[1],84.2%
same,"viability at 24 h, 100 µM",[2],64.6%
same,cell viability,[3],no significant change
same,"viability at 24 h, 100 µM",[4],84.9%
same,AUC(0-inf),[5],9580 ± 2070 ng·h/mL
same,AUC(0-t),[5],8710 ± 1930 ng·h/mL
same,Cmax,[5],520 ± 138 ng/mL
same,Tmax,[5],5.33 ± 1.63 h
same,CL/F,[5],18 mL/min/kg
same,MRT,[5],30.4 ± 1.83 h
same,half-life,[5],1250 ± 314 min
same,Vd/F,[5],32.4 ± 9.94 L/kg
same,"Stability (Mean±SD), Postpreparative",[6],98.19±5.06%
same,"Stability (Mean±SD), Short Term",[6],99.26±1.58%
same,"Stability (Mean±SD), Freeze and Thaw",[6],92.6±4.31%
same,"Stability (Mean±SD), Long Term",[6],92.26±4.28%
"CCCCC/C=C/C(=O)CCc1ccc(O)c(OC)c1 [6-shogaol, reference compound]","viability at 24 h, 100 µM",[1],2.73%
same,"viability at 24 h, 100 µM",[2],7.84%
same,"viability at 24 h, 10 µM","[4]; HCT-116, 10 μM",58.6%
same,"viability at 24 h, 100 µM",[4],4.17%
same,AUC(0-inf),[5],121 ± 36.3 ng·h/mL
same,AUC(0-t),[5],76.8 ± 26.9 ng·h/mL
same,Cmax,[5],155 ± 39 ng/mL
same,Tmax,[5],0.14 ± 0.09 h
same,CL/F,[5],1470 mL/min/kg
same,MRT,[5],1.02 ± 0.82 h
same,half-life,[5],38.4 ± 31.8 min
same,Vd/F,[5],71.9 ± 33 L/kg
same,"Stability (Mean±SD), Postpreparative",[6],95.87±8.69%
same,"Stability (Mean±SD), Short Term",[6],95.88±8.18%
same,"Stability (Mean±SD), Freeze and Thaw",[6],96.06±9.07%
same,"Stability (Mean±SD), Long Term",[6],101.23±12.95%
"CCCCCC=CC(O)CCc1ccc(O)c(OC)c1 (centres unmarked) [M1, 1-(4′-hydroxy-3′-methoxyphenyl)-4-decen-3-ol]","biological samples in which metabolite was detected, 6-Shogaol treated",[7],FUP
"CCCCC/C=C/C(=O)CCc1ccc(OC2OC(C(=O)O)C(O)C(O)C2O)c(OC)c1 (stereo not drawn) [M3, s-6-shogaol-4′-O-β-glucuronide]","biological samples in which metabolite was detected, 6-Shogaol treated",[7],FUP
"CCCCCC(CC(=O)CCc1ccc(O)c(OC)c1)SCC(NC(=O)CCC(N)C(=O)O)C(=O)NCC(=O)O (centres unmarked) [M4, 5-glutathionyl-6-shogaol]",metabolite concentration in urine and feces samples of 6-gingesulfonic acid group versus 6-shogaol group,[7]; 10 mg/kg oral,lower concentrations
